Structures can show the parent of a compound that is named as a salt.
Tests used:
[1] = tested on: endotoxin (LPS) induced rise in plasma nitrites; experiment: In Vivo Assay: plasma nitrites after endotoxin (Low Dose LPS); parameters: species or system Rats; settings: plasma nitrites 5 hours post-treatment
Method: Rats were treated with an intraperitoneal injection of 10 mg/kg of endotoxin (LPS) with or without oral administration of the nitric oxide synthase inhibitors.

[2] = target: hiNOS (Homo sapiens, UniProt P35228); experiment: Citrulline Assay for Nitric Oxide Synthase, Human in vitro Enzyme Data, hiNOS; format: biochemical
[3] = target: hecNOS (Homo sapiens, UniProt P29474); experiment: Citrulline Assay for Nitric Oxide Synthase, Human in vitro Enzyme Data, hecNOS; format: biochemical
[4] = target: hnaNOS (Homo sapiens, UniProt P29475); experiment: Citrulline Assay for Nitric Oxide Synthase, Human in vitro Enzyme Data, hnaNOS; format: biochemical

Cc1noc(=O)n1CCCC[C@H](N)C(=O)O [Example 2, αS-amino-4,5-dihydro-3-methyl-5-oxo-1,2,4-oxadiazole-4-hexanoic acid, monohydrochloride]
Low Dose LPS in vivo Effective Dose (i.v.), inh. ([1]; i.v., 3 mg/kg/day): 83% | Low Dose LPS in vivo Effective Dose (p.o.), inh. ([1]; 3 mg/kg/day): 39% | Low Dose LPS in vivo Effective Dose (p.o.), inh. ([1]; 10 mg/kg/day): 42% | IC50 [2]: 138 µM | IC50 [3]: 1140 µM | IC50 [4]: 159 µM

From patent US5981556A, “1,3-diazolino and 1,3-diazolidino heterocycles as useful nitric oxide synthase inhibitors” (G.D. Searle & Co., priority 1997, dated 1999)
